Source: patent publication US20220089575A1, “FARNESOID X RECEPTOR AGONISTS AND USES THEREOF” (Metacrine, Inc., priority 2017, published 2022)

Target: T1, hFXR (Homo sapiens, UniProt Q96RI1)
T1 construct: expressed in transfected cells; host or cells: CV-1 cells
T1 sequence (Q96RI1 1-486): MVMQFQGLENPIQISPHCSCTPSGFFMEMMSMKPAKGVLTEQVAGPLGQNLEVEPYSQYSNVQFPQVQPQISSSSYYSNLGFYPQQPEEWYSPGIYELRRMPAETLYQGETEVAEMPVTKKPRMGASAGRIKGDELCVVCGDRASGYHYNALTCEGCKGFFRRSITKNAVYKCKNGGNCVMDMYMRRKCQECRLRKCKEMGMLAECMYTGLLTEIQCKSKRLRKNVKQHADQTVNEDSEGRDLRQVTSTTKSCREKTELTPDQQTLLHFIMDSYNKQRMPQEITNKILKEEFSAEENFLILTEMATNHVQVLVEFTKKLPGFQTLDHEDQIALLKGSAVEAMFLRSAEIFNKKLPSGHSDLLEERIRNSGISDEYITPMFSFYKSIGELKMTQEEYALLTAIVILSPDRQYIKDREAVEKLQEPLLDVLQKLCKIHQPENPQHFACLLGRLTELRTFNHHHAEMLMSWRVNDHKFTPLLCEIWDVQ
T1 sequence (P19793 1-462 partner): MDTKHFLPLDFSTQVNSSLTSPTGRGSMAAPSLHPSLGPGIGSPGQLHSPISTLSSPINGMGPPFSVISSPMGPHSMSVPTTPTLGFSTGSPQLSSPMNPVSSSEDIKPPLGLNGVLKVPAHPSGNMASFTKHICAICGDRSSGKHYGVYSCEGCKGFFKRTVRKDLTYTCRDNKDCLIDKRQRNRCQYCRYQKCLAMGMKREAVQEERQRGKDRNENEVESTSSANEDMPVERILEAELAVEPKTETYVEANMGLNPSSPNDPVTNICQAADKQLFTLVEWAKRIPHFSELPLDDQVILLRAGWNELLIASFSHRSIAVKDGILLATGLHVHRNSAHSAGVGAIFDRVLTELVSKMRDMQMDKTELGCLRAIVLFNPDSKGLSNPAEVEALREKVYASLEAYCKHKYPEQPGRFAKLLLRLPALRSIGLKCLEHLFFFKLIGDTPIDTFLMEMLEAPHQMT
Experiment: In Vitro FXR Assay (TK): TK-ECRE-luc reporter in transfected CV-1 cells
Assay type: cell-based
Conditions: 18 hrs, luminescence, maximum efficacy of <25% of the Fexarmine control classified as '+'
In short: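 Transiently transfected monkey CV-1 cells (hFXR, hRXR, TK-ECRE-luciferase, YFP control plasmid), held in stripped-serum DMEM, received compound dilutions from DMSO for 18 h at 37 °C. Activity was taken from luminescence of the cell lysates.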

SMILES	EC50
CN(C)c1ccc(C23CCC(CN(c4cccc(-c5cnn(C6CC6)c5)c4)C(=O)[C@H]4CC[C@H](OC(=O)NCCO)CC4)(CC2)CC3)cn1 [Compound 4.12, 4-((3-(1-Cyclopropyl-1H-pyrazol-4-yl)phenyl)((4-(6-(dimethylamino)pyridin-3-yl)bicyclo[2.2.2]octan-1-yl)methyl)carbamoyl)cyclohexyl (2-hydroxyethyl)trans-carbamate]	≤ 250 nM
COc1ccc([C@H]2CC[C@H](CN(c3cccc(-c4coc(C5CC5)n4)c3)C(=O)[C@H]3CC[C@H](NC(=O)CO)CC3)CC2)cc1C [Compound 26.16, trans-N-(3-(2-Cyclopropyloxazol-4-yl)phenyl)-4-(2-hydroxyacetamido)-N-((trans-4-(4-methoxy-3-methylphenyl)cyclohexyl)methyl) cyclohexanecarboxamide]	≤ 250 nM
COc1ccc([C@H]2CC[C@H](CN(c3cccc(-c4cnn(C5CC5)c4)c3)C(=O)[C@H]3CC[C@H](OC(=O)N4CC(O)C4)CC3)CC2)cc1C [Compound 4.25, trans-4-((3-(1-Cyclopropyl-1H-pyrazol-4-yl)phenyl)((trans-4-(4-methoxy-3-methylphenyl)cyclohexyl)methyl)carbamoyl)cyclohexyl 3-hydroxyazetidine-1-carboxylate]	≤ 250 nM
COc1ncc(-c2cccc(N(C[C@H]3CC[C@H](c4ccc(OC)c(C)c4)CC3)C(=O)[C@H]3CC[C@H](C(N)=O)CC3)c2)s1 [Compound 24.01, trans-N^1-((trans-4-(4-Methoxy-3-methylphenyl)cyclohexyl)methyl)-N^1-(3-(2-methoxythiazol-5-yl)phenyl)cyclohexane-1,4-dicarboxamide]	≤ 250 nM
COc1ccc([C@H]2CC[C@H](CN(c3cc(-c4cnc(C5CC5)s4)ccn3)C(=O)[C@H]3CC[C@H](C(=O)O)CC3)CC2)cc1C [Compound 17.09, trans-4-((4-(2-Cyclopropylthiazol-5-yl)pyridin-2-yl)((trans-4-(4-methoxy-3-methylphenyl)cyclohexyl)methyl)carbamoyl)cyclohexanecarboxylic acid]	≤ 250 nM
CNC(=O)OCC(=O)N[C@H]1CC[C@H](C(=O)N(C[C@H]2CC[C@H](c3ccc(OC)c(C)c3)CC2)c2cccc(-c3cnn(C4CC4)c3)c2)CC1 [Compound 26.04, 2-((trans-4-((3-(1-Cyclopropyl-1H-pyrazol-4-yl)phenyl)((trans-4-(4-methoxy-3-methylphenyl)cyclohexyl)methyl)carbamoyl)cyclohexyl)amino)-2-oxoethyl methylcarbamate]	≤ 250 nM
COc1ccc([C@H]2CC[C@H](CN(c3cccc(-c4cnn(C5CC5)c4)c3)C(=O)[C@H]3CC[C@H](NC(=O)CS(C)(=O)=O)CC3)CC2)cc1C [Compound 31.02]	250 to 1000 nM
CCOC(=O)NC[C@H]1CC[C@H](C(=O)N(C[C@H]2CC[C@H](c3ccc(OC)c(C)n3)CC2)c2cc(-c3coc(C4CC4)n3)ccn2)CC1 [Compound 26.28]	≤ 250 nM
COc1ncc([C@H]2CC[C@H](CN(c3cccc(-c4cnn(C5CC5)c4)c3)C(=O)[C@H]3CC[C@H](OC(=O)N4CC(O)C4)CC3)CC2)cc1C [Compound 7.25, trans-4-((3-(1-Cyclopropyl-1H-pyrazol-4-yl)phenyl)((trans-4-(6-methoxy-5-methylpyridin-3-yl)cyclohexyl)methyl)carbamoyl)cyclohexyl 3-hydroxyazetidine-1-carboxylate]	≤ 250 nM
CNC(=O)O[C@H]1CC[C@H](C(=O)N(C[C@H]2CC[C@H](c3ccc(OC)c(C)n3)CC2)c2cc(-c3coc(C(C)C)n3)ccn2)CC1 [Compound 5.43, trans-4-((4-(2-Isopropyloxazol-4-yl)pyridine-2-yl)((trans-4-(5-methoxy-6-methylpyridin-2-yl)cyclohexyl)methyl)carbamoyl)cyclohexyl methylcarbamate]	≤ 250 nM
COc1ccc([C@H]2CC[C@H](CN(c3cc(-c4cnc(C5CC5)s4)ccn3)C(=O)[C@H]3CC[C@H](CC(=O)O)CC3)CC2)cc1C#N [Compound 20.05, 2-(trans-4-(((trans-4-(3-Cyano-4-methoxyphenyl)cyclohexyl)methyl)(4-(2-cyclopropylthiazol-5-yl)pyridin-2-yl)carbamoyl)cyclohexyl)acetic acid]	≤ 250 nM
COc1ccc([C@H]2CC[C@H](CN(c3cc(-c4cnn(C(C)C)c4)ccn3)C(=O)[C@H]3CC[C@H](OC(=O)N4CC(S(C)(=O)=O)C4)CC3)CC2)cc1C#N [Compound 6.36, trans-4-(((trans-4-(3-Cyano-4-methoxyphenyl)cyclohexyl)methyl)(4-(1-isopropyl-1H-pyrazol-4-yl)pyridin-2-yl)carbamoyl)cyclohexyl 3-(methylsulfonyl)azetidine-1-carboxylate]	≤ 250 nM
COc1ccc([C@H]2CC[C@H](CN(c3cc(-c4cnn(C(C)C)c4)ccn3)C(=O)[C@H]3CC[C@H](NC(C)=O)CC3)CC2)cc1C [Compound 26.33, trans-4-Acetamido-N-(4-(1-isopropyl-1H-pyrazol-4-yl)pyridin-2-yl)-N-((trans-4-(4-methoxy-3-methylphenyl)cyclohexyl)methyl)cyclohexanecarboxamide]	≤ 250 nM
COc1ccc([C@H]2CC[C@H](CN(c3cc(-c4cnn(C(C)C)c4)ccn3)C(=O)[C@H]3CC[C@H](OC(=O)NCCO)CC3)CC2)cc1C [Compound 6.17, trans-4-((4-(1-Isopropyl-1H-pyrazol-4-yl)pyridin-2-yl)((trans-4-(4-methoxy-3-methylphenyl)cyclohexyl)methyl)carbamoyl)cyclohexyl (2-hydroxyethyl)carbamate]	≤ 250 nM
COc1ccc([C@H]2CC[C@H](CN(c3cccc(-c4cnc(C5CC5)s4)c3)C(=O)[C@H]3CC[C@H](C(=O)O)CC3)CC2)nc1C#N [Compound 17.12, trans-4-(((trans-4-(6-Cyano-5-methoxypyridin-2-yl)cyclohexyl)methyl)(3-(2-cyclopropylthiazol-5-yl)phenyl)carbamoyl) cyclohexanecarboxylic acid]	≤ 250 nM
COc1ccc([C@H]2CC[C@H](CN(c3cc(-c4cnc(C(C)C)s4)ccn3)C(=O)[C@H]3CC[C@H](OC(=O)N4CC(O)C4)CC3)CC2)cc1C [Compound 7.04, trans-4-((4-(2-Isopropylthiazol-5-yl)pyridin-2-yl)((trans-4-(4-methoxy-3-methylphenyl)cyclohexyl)methyl)carbamoyl)cyclohexyl 3-hydroxyazetidine-1-carboxylate]	≤ 250 nM
COc1ccc(C23CCC(CN(c4cc(-c5cnn(C6CC6)c5)ccn4)C(=O)[C@H]4CC[C@H](C(=O)O)CC4)(CC2)CC3)cc1C [Compound 17.19, trans-4-((4-(1-Cyclopropyl-1H-pyrazol-4-yl)pyridin-2-yl)((4-(4-methoxy-3-methylphenyl)bicyclo[2.2.2]octan-1-yl)methyl)carbamoyl) cyclohexanecarboxylic acid]	≤ 250 nM
COc1ccc([C@H]2CC[C@H](CN(c3cc(-c4cnc(C(C)C)s4)ccn3)C(=O)[C@H]3CC[C@H](OC(=O)NCCO)CC3)CC2)cc1C [Compound 6.03, trans-4-((4-(2-Isopropylthiazol-5-yl)pyridin-2-yl)((trans-4-(4-methoxy-3-methylphenyl)cyclohexyl)methyl)carbamoyl)cyclohexyl (2-hydroxyethyl) carbamate]	≤ 250 nM
COc1ccc([C@H]2CC[C@H](CN(c3cc(-c4cnn(C(C)C)c4)ccn3)C(=O)[C@H]3CC[C@H](CO)CC3)CC2)nc1C [Compound 15.03, trans-4-(Hydroxymethyl)-N-(4-(1-isopropyl-1H-pyrazol-4-yl)pyridin-2-yl)-N-((trans-4-(5-methoxy-6-methylpyridin-2-yl)cyclohexyl)methyl) cyclohexanecarboxamide]	≤ 250 nM
COc1ccc([C@H]2CC[C@H](CN(c3cc(-c4coc(C5CC5)n4)ccn3)C(=O)[C@H]3CC[C@H](OC(=O)N4CCN(C)CC4)CC3)CC2)nc1C [Compound 6.65, trans-4-((4-(2-Cyclopropyloxazol-4-yl)pyridine-2-yl)((trans-4-(5-methoxy-6-methylpyridin-2-yl)cyclohexyl)methyl)carbamoyl)cyclohexyl 4-methylpiperazine-1-carboxylate]	≤ 250 nM
COc1ncc(-c2cccc(N(C[C@H]3CC[C@H](c4ccc(OC)c(C)c4)CC3)C(=O)[C@H]3CC[C@H](C(=O)NCCN(C)C)CC3)c2)s1 [Compound 24.05, trans-N^1-(2-(Dimethylamino)ethyl)-N^4-((trans-4-(4-methoxy-3-methylphenyl)cyc1ohexyl)methyl)-N^4-(3-(2-methoxythiazol-5-yl)phenyl)cyclohexane-1,4-dicarboxamide]	250 to 1000 nM
